Assay results reported in patent US20260295053A1, “COMPOUNDS FOR DEGRADATION AND INHIBITION OF KRAS (G12D) PROTEIN” (Shenzhen Ionova Life Science Co., Ltd., priority 2023, published 2026).
Each block holds one compound with its values, some of them ahead of it.

Tests used:
AsPC-1 cells = test: AsPC-1 cell proliferation assay (CellTiter Glo); format: cell-based; details: 6 days
Procedure, shortened: (§1)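 AsPC-1 cells were seeded at 22,000/well for degradation and 3,500/well for proliferation. Compounds in 1:3 dilutions ([…] to 1.5 nM final) ran 24 h for degradation, read by in-cell immunofluorescence of KRAS G12D normalised to β-actin, and 6 days for proliferation (CellTiter Glo luminescence). DC50/IC50 came from dose-response fits.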

KRAS (G12D) = molecular target: T1, KRAS (G12D) (Homo sapiens, UniProt P01116, G12D); test: KRAS (G12D) cellular degradation assay in AsPC-1 cells; format: cell-based; details: 24 hours, antibody fluorescence (Odyssey CLX), DC50 half-maximal degradation concentration
T1 construct: in-cell western with KRAS G12D antibody after 24 h
Procedure, shortened: as §1

T1 sequence (P01116 1-188 isoform P01116-2 G12D): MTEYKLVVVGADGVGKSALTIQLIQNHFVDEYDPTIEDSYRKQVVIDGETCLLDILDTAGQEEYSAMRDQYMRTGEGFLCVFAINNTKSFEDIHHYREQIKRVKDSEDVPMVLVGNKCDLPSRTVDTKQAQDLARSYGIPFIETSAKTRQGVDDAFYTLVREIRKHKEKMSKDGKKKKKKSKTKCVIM

IC50 (AsPC-1 cells; Homo sapiens, ASPC1, 144 h): < 10 nM
DC50 (KRAS (G12D)): < 10 nM
SMILES: CCn1nccc1-c1ccc([C@@H](NC(=O)[C@@H]2C[C@@H](O)CN2C(=O)[C@H](C(C)C)n2cc(-c3ccc(COc4c(-c5c(C)c(F)cc6[nH]ncc56)c(C5CC5)cc5c(N6C[C@@H]7C[C@H]6CN7)nc(OC6CCC7(CC6)COC7)nc45)cc3)nn2)[C@H](C)O)cc1 [Example 87, (2S,4R)-1-((2S)-2-(4-(4-(((2-((2-oxaspiro[3.5]nonan-7-yl)oxy)-4-((1S,4S)-2,5-diazabicyclo[2.2.1]heptan-2-yl)-6-cyclopropyl-7-(6-fluoro-5-methyl-1H-indazol-4-yl)quinazolin-8-yl)oxy)methyl)phenyl)-1H-1,2,3-triazol-1-yl)-3-methylbutanoyl)-N-((1R,2S)-1-(4-(1-ethyl-1H-pyrazol-5-yl)phenyl)-2-hydroxypropyl)-4-hydroxypyrrolidine-2-carboxamide]

IC50 (AsPC-1 cells; Homo sapiens, ASPC1, 144 h): < 10 nM
DC50 (KRAS (G12D)): < 10 nM
SMILES: CCn1nccc1-c1ccc([C@@H](NC(=O)[C@@H]2C[C@@H](O)CN2C(=O)[C@H](C(C)C)n2cc(-c3ccc(COc4c(-c5c(C)c(F)cc6[nH]ncc56)c(C5CC5)cc5c(N6C[C@@H]7C[C@H]6CN7)nc(OC6CC7COCC7C6)nc45)cc3)nn2)[C@H](C)O)cc1 (stereo partly drawn) [Example 115, (2S,4R)-1-((2S)-2-(4-(4-(((4-((1S,4S)-2,5-diazabicyclo[2.2.1]heptan-2-yl)-6-cyclopropyl-7-(6-fluoro-5-methyl-1H-indazol-4-yl)-2-((hexahydro-1H-cyclopenta[c]furan-5-yl)oxy)quinazolin-8-yl)oxy)methyl)phenyl)-1H-1,2,3-triazol-1-yl)-3-methylbutanoyl)-N-((1R,2S)-1-(4-(1-ethyl-1H-pyrazol-5-yl)phenyl)-2-hydroxypropyl)-4-hydroxypyrrolidine-2-carboxamide]

IC50 (AsPC-1 cells; Homo sapiens, ASPC1, 144 h): > 1000 nM
DC50 (KRAS (G12D)): > 1000 nM
SMILES: CO[C@@H](C)COc1nc(N2C[C@@H]3C[C@H]2CN3)c2cc(C3CC3)c(-c3c(C)c(F)cc4[nH]ncc34)c(OCc3ccc(-c4cn([C@H](C(=O)N5C[C@H](O)C[C@H]5C(=O)N[C@H](c5ccc(S(F)(F)(F)(F)F)cc5)[C@H](C)O)C(C)C)nn4)cc3)c2n1 [Example 148, (2S,4R)-1-((2S)-2-(4-(4-(((4-((1S,4S)-2,5-diazabicyclo[2.2.1]heptan-2-yl)-6-cyclopropyl-7-(6-fluoro-5-methyl-1H-indazol-4-yl)-2-((S)-2-methoxypropoxy)quinazolin-8-yl)oxy)methyl)phenyl)-1H-1,2,3-triazol-1-yl)-3-methylbutanoyl)-4-hydroxy-N-((1R,2S)-2-hydroxy-1-(4-(pentafluoro-I6-sulfaneyl)phenyl)propyl)pyrrolidine-2-carboxamide]

IC50 (AsPC-1 cells; Homo sapiens, ASPC1, 144 h): < 10 nM
DC50 (KRAS (G12D)): 10 to 100 nM
SMILES: CO[C@@H](C)COc1nc(N2C[C@@H]3C[C@H]2CN3)c2cc(C3CC3)c(-c3c(C)c(F)cc4[nH]ncc34)c(OCc3ccc(-c4cn([C@H](C(=O)N5C[C@H](O)C[C@H]5C(=O)N[C@H](C#Cc5cccc(F)c5Cl)CO)C(C)C)nn4)cc3)c2n1 [Example 98, (2S,4R)-1-((2S)-2-(4-(4-(((4-((1S,4S)-2,5-diazabicyclo[2.2.1]heptan-2-yl)-6-cyclopropyl-7-(6-fluoro-5-methyl-1H-indazol-4-yl)-2-((S)-2-methoxypropoxy)quinazolin-8-yl)oxy)methyl)phenyl)-1H-1,2,3-triazol-1-yl)-3-methylbutanoyl)-N—((R)-4-(2-chloro-3-fluorophenyl)-1-hydroxybut-3-yn-2-yl)-4-hydroxypyrrolidine-2-carboxamide]

IC50 (AsPC-1 cells; Homo sapiens, ASPC1, 144 h): < 10 nM
DC50 (KRAS (G12D)): < 10 nM
SMILES: Cc1ncsc1-c1ccc([C@H](CO)NC(=O)[C@@H]2C[C@@H](O)CN2C(=O)[C@H](C(C)C)n2cc(-c3ccc(COc4c(-c5c(C)c(F)cc6[nH]ncc56)c(C5CCC5)cc5c(N6C[C@@H]7C[C@H]6CN7)nc(OC6CCOCC6)nc45)cc3)nn2)cc1 [Example 94, (2S,4R)-1-((2S)-2-(4-(4-(((4-((1S,4S)-2,5-diazabicyclo[2.2.1]heptan-2-yl)-6-cyclobutyl-7-(6-fluoro-5-methyl-1H-indazol-4-yl)-2-((tetrahydro-2H-pyran-4-yl)oxy)quinazolin-8-yl)oxy)methyl)phenyl)-1H-1,2,3-triazol-1-yl)-3-methylbutanoyl)-4-hydroxy-N—((R)-2-hydroxy-1-(4-(4-methylthiazol-5-yl)phenyl)ethyl)pyrrolidine-2-carboxamide]

IC50 (AsPC-1 cells; Homo sapiens, ASPC1, 144 h): < 10 nM
DC50 (KRAS (G12D)): < 10 nM
SMILES: CO[C@@H](C)COc1nc(N2C[C@@H]3C[C@H]2CN3)c2cc(C3CC3)c(-c3c(C)c(F)cc4[nH]ncc34)c(OCc3ccc(-c4cn([C@H](C(=O)N5C[C@H](O)C[C@H]5C(=O)N[C@H](C#Cc5cccc(F)c5)CO)C(C)C)nn4)cc3)c2n1 [Example 77, (2S,4R)-1-((2S)-2-(4-(4-(((4-((1S,4S)-2,5-diazabicyclo[2.2.1]heptan-2-yl)-6-cyclopropyl-7-(6-fluoro-5-methyl-1H-indazol-4-yl)-2-((S)-2-methoxypropoxy)quinazolin-8-yl)oxy)methyl)phenyl)-1H-1,2,3-triazol-1-yl)-3-methylbutanoyl)-N—((R)-4-(3-fluorophenyl)-1-hydroxybut-3-yn-2-yl)-4-hydroxypyrrolidine-2-carboxamide]

The next lines start with the compound.

SMILES: CO[C@@H](C)COc1nc(N2C[C@@H]3C[C@H]2CN3)c2cc(C3CC3)c(-c3c(C)c(F)cc4[nH]ncc34)c(OCc3ccc(-c4cn([C@H](C(=O)N5C[C@H](O)C[C@H]5C(=O)N[C@H](C#Cc5ccc(F)cc5F)CO)C(C)C)nn4)cc3)c2n1 [Example 40, (2S,4R)-1-((2S)-2-(4-(4-(((4-((1S,4S)-2,5-diazabicyclo[2.2.1]heptan-2-yl)-6-cyclopropyl-7-(6-fluoro-5-methyl-1H-indazol-4-yl)-2-((S)-2-methoxypropoxy)quinazolin-8-yl)oxy)methyl)phenyl)-1H-1,2,3-triazol-1-yl)-3-methylbutanoyl)-N—((R)-4-(2,4-difluorophenyl)-1-hydroxybut-3-yn-2-yl)-4-hydroxypyrrolidine-2-carboxamide]
IC50 (AsPC-1 cells; Homo sapiens, ASPC1, 144 h): 10 to 100 nM
DC50 (KRAS (G12D)): 10 to 100 nM

SMILES: CCn1nccc1-c1ccc([C@@H](NC(=O)[C@@H]2C[C@@H](O)CN2C(=O)[C@H](C(C)C)n2cc(-c3ccc(COc4c(-c5c(C)c(F)cc6[nH]ncc56)c(C5CC5)cc5c(N6C[C@@H]7C[C@H]6CN7)nc(OC[C@H](C)OC)nc45)cc3)nn2)[C@@H](C)O)cc1 [Example 73, (2S,4R)-1-((2S)-2-(4-(4-(((4-((1S,4S)-2,5-diazabicyclo[2.2.1]heptan-2-yl)-6-cyclopropyl-7-(6-fluoro-5-methyl-1H-indazol-4-yl)-2-((S)-2-methoxypropoxy)quinazolin-8-yl)oxy)methyl)phenyl)-1H-1,2,3-triazol-1-yl)-3-methylbutanoyl)-N-((1R,2R)-1-(4-(1-ethyl-1H-pyrazol-5-yl)phenyl)-2-hydroxypropyl)-4-hydroxypyrrolidine-2-carboxamide]
IC50 (AsPC-1 cells; Homo sapiens, ASPC1, 144 h): < 10 nM
DC50 (KRAS (G12D)): < 10 nM

SMILES: CCn1nccc1-c1ccc([C@H](CO)NC(=O)[C@@H]2C[C@@H](O)CN2C(=O)[C@H](C(C)C)n2cc(-c3ccc(COc4c(-c5c(C)c(F)cc6[nH]ncc56)c(C5CC5)cc5c(N6C[C@H]7C[C@@H]6CN7)nc(OC[C@H](C)OC)nc45)cc3)nn2)cc1 (single isomer, unassigned) [Example 1A]
IC50 (AsPC-1 cells): < 10 nM
DC50 (KRAS (G12D)): < 10 nM

SMILES: CO[C@@H](C)COc1nc(N2C[C@@H]3C[C@H]2CN3)c2cc(C3CC3)c(-c3c(C)c(F)cc4[nH]ncc34)c(OCc3ccc(-c4cn([C@H](C(=O)N5C[C@H](O)C[C@H]5C(=O)N[C@H](C#Cc5cc6scnc6s5)CO)C(C)C)nn4)cc3)c2n1 [Example 67, (2S,4R)-1-((2S)-2-(4-(4-(((4-((1S,4S)-2,5-diazabicyclo[2.2.1]heptan-2-yl)-6-cyclopropyl-7-(6-fluoro-5-methyl-1H-indazol-4-yl)-2-((S)-2-methoxypropoxy)quinazolin-8-yl)oxy)methyl)phenyl)-1H-1,2,3-triazol-1-yl)-3-methylbutanoyl)-4-hydroxy-N—((R)-1-hydroxy-4-(thieno[2,3-d]thiazol-5-yl)but-3-yn-2-yl)pyrrolidine-2-carboxamide]
IC50 (AsPC-1 cells; Homo sapiens, ASPC1, 144 h): 10 to 100 nM
DC50 (KRAS (G12D)): 10 to 100 nM

SMILES: CCn1nccc1-c1ccc([C@H](CO)NC(=O)[C@@H]2C[C@@H](O)CN2C(=O)[C@H](C(C)C)n2cc(-c3ccc(COc4c(-c5c(C)c(F)cc6[nH]ncc56)c(C5CC5)cc5c(N6C[C@@H]7C[C@H]6CN7)nc(O[C@H]6C[C@H](OC)C6)nc45)cc3)nn2)cc1 [Example 74, (2S,4R)-1-((2S)-2-(4-(4-(((4-((1S,4S)-2,5-diazabicyclo[2.2.1]heptan-2-yl)-6-cyclopropyl-7-(6-fluoro-5-methyl-1H-indazol-4-yl)-2-((1r,3S)-3-methoxycyclobutoxy)quinazolin-8-yl)oxy)methyl)phenyl)-1H-1,2,3-triazol-1-yl)-3-methylbutanoyl)-N—((R)-1-(4-(1-ethyl-1H-pyrazol-5-yl)phenyl)-2-hydroxyethyl)-4-hydroxypyrrolidine-2-carboxamide]
IC50 (AsPC-1 cells; Homo sapiens, ASPC1, 144 h): < 10 nM
DC50 (KRAS (G12D)): < 10 nM

SMILES: CCn1nccc1-c1ccc([C@H](CO)NC(=O)[C@@H]2C[C@@H](O)CN2C(=O)[C@H](C(C)C)n2cc(-c3ccc(COc4c(-c5c(C)c(F)cc6[nH]ncc56)c(C(F)(F)F)cc5c(N6C[C@@H]7C[C@H]6CN7)nc(OC[C@H](C)OC)nc45)cc3)nn2)cc1 [Example 30, (2S,4R)-1-((2S)-2-(4-(4-(((4-((1S,4S)-2,5-diazabicyclo[2.2.1]heptan-2-yl)-7-(6-fluoro-5-methyl-1H-indazol-4-yl)-2-((S)-2-methoxypropoxy)-6-(trifluoromethyl)quinazolin-8-yl)oxy)methyl)phenyl)-1H-1,2,3-triazol-1-yl)-3-methylbutanoyl)-N—((R)-1-(4-(1-ethyl-1H-pyrazol-5-yl)phenyl)-2-hydroxyethyl)-4-hydroxypyrrolidine-2-carboxamide]
IC50 (AsPC-1 cells; Homo sapiens, ASPC1, 144 h): < 10 nM
DC50 (KRAS (G12D)): < 10 nM
